Laboratory results from patent publication US20120214862A1, “MODULATION OF FACTOR 7 EXPRESSION” (ISIS Pharmaceuticals, Inc., priority 2009, published 2012).
In the oligonucleotide strings, read from the 5' end, every base follows the letter of its sugar. An asterisk marks phosphorothioate; unmarked linkages are phosphodiester. Other units and linkages are bracketed, terminal groups are in braces. A string of capitals states the bases alone. e = 2'-O-(2-methoxyethyl) (MOE); [5mC] = 5-methylcytosine; d = 2'-deoxy (DNA)

Test system: human Factor 7 mRNA
Assay: Antisense inhibition of human Factor 7 mRNA in HepB3 cells, lipofectin, 50 nM, real-time RT-PCR
Format: cell-based
Conditions: HepB3 cells
Outline: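 Cells plated at 4,000 per well were transfected and harvested after approximately 24 hours of treatment. Transcript levels, measured with primer probe set RTS 2927, were normalised to total RNA by RIBOGREEN®. Values are percent inhibition relative to untreated control cells.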

[1] = lipofectin, 50 nM antisense oligonucleotide, approximately 24 hours, primer probe set RTS 2927, relative to untreated control

Substance	% Inhibition of human Factor 7 mRNA levels [1] [%]	other results
416482 (antisense e[5mC]*eA*eT*eG*eG*dT*dG*dA*dT*dG*d[5mC]*dT*dT*d[5mC]*dT*eG*eA*eA*eT*eT) [compound 416482]	64	% Inhibition of human Factor 7 mRNA levels (gapmers targeted to nucleobases 15188 to 15211 of SEQ ID NO: 1 (Table 13)): 64%
416483 (antisense eT*eG*eT*eG*eA*dG*dG*dG*dT*dT*d[5mC]*dA*dT*dT*dT*e[5mC]*eA*eG*eT*eG) [compound 416483]	22	
416484 (antisense eT*eA*e[5mC]*eA*eG*d[5mC]*d[5mC]*dT*d[5mC]*dA*dA*dA*d[5mC]*dA*dT*e[5mC]*eT*eA*eT*e[5mC]) [compound 416484]	0	
416485 (antisense eG*eA*eG*e[5mC]*eT*dA*d[5mC]*dA*dG*d[5mC]*d[5mC]*dT*d[5mC]*dA*dA*eA*e[5mC]*eA*eT*e[5mC]) [compound 416485]	7	
416486 (antisense eA*eT*eT*eG*eA*d[5mC]*dA*dA*dG*dG*dG*d[5mC]*dT*dG*dT*eG*eG*e[5mC]*eA*eG) [compound 416486]	12	
416487 (antisense eG*e[5mC]*eA*eG*eG*dT*dG*d[5mC]*dT*d[5mC]*d[5mC]*d[5mC]*dA*dG*dG*eG*eT*e[5mC]*eT*e[5mC]) [compound 416487]	39	
416488 (antisense e[5mC]*eA*eG*eG*eT*d[5mC]*d[5mC]*dT*d[5mC]*d[5mC]*d[5mC]*dA*d[5mC]*dT*dG*e[5mC]*eA*eG*e[5mC]*e[5mC]) [compound 416488]	41	
416489 (antisense eG*eT*eG*e[5mC]*eA*dG*d[5mC]*dT*dT*dG*d[5mC]*d[5mC]*dA*dG*dG*eT*e[5mC]*e[5mC]*eT*e[5mC]) [compound 416489]	38	
416490 (antisense eA*e[5mC]*eT*e[5mC]*eA*dG*d[5mC]*dA*dA*dG*dA*dG*dT*dG*d[5mC]*eA*eG*e[5mC]*eT*eT) [compound 416490]	33	
416491 (antisense eG*eA*eG*eA*eA*dG*dG*dG*dT*dT*dG*d[5mC]*dA*dG*dG*e[5mC]*eA*eG*eG*eA) [compound 416491]	2	
416492 (antisense eG*eG*eA*eT*e[5mC]*dA*dT*dT*d[5mC]*dT*dG*dG*d[5mC]*d[5mC]*d[5mC]*eT*eG*eA*eG*e[5mC]) [compound 416492]	13	
416493 (antisense eT*e[5mC]*eT*eT*eG*dG*dG*dT*dG*dT*dG*dG*dA*dT*dG*eT*eA*eA*eA*eT) [compound 416493]	0	
416494 (antisense e[5mC]*eA*eG*eA*eT*dT*dT*dA*dA*dA*d[5mC]*dT*dG*d[5mC]*dA*eG*eA*eT*eG*eA) [compound 416494]	0	
416495 (antisense eT*e[5mC]*eT*eA*eG*dA*dA*dT*dT*d[5mC]*d[5mC]*dA*dA*dA*d[5mC]*e[5mC]*e[5mC]*e[5mC]*eT*eA) [compound 416495]	0	
416496 (antisense e[5mC]*eA*eA*e[5mC]*eA*d[5mC]*dT*dT*d[5mC]*dA*dA*dA*dT*dA*d[5mC]*eG*eA*eT*e[5mC]*eT) [compound 416496]	0	
416497 (antisense e[5mC]*eG*eT*eG*e[5mC]*dA*dG*dG*dT*dG*dT*dT*dA*dA*dG*eG*eT*eG*eT*eG) [compound 416497]	0	
416498 (antisense eG*eG*e[5mC]*e[5mC]*eA*dG*dT*dG*dG*d[5mC]*d[5mC]*dA*dT*dG*d[5mC]*eA*eT*e[5mC]*e[5mC]*e[5mC]) [compound 416498]	5	
416499 (antisense eG*eA*eG*eA*eG*d[5mC]*dT*dG*d[5mC]*dA*d[5mC]*d[5mC]*dT*dG*dG*e[5mC]*e[5mC]*eG*eG*e[5mC]) [compound 416499]	7	
416500 (antisense e[5mC]*eT*eG*eA*eA*d[5mC]*dA*d[5mC]*d[5mC]*d[5mC]*d[5mC]*dA*dG*d[5mC]*dT*eG*eA*eG*eA*eG) [compound 416500]	1	
416501 (antisense e[5mC]*eT*eG*e[5mC]*e[5mC]*d[5mC]*dT*dT*d[5mC]*d[5mC]*dA*d[5mC]*d[5mC]*dA*dA*eG*eT*eT*eT*eA) [compound 416501]	18	
416502 (antisense eG*eT*eT*e[5mC]*eT*dT*dT*dG*dA*dA*dA*dA*dA*dT*dA*eA*eT*e[5mC]*e[5mC]*e[5mC]) [compound 416502]	22	
416503 (antisense eT*eA*eG*e[5mC]*e[5mC]*dA*d[5mC]*d[5mC]*d[5mC]*d[5mC]*dG*d[5mC]*dG*dG*dG*e[5mC]*eT*eG*eG*e[5mC]) [compound 416503]	0	
416504 (antisense eT*e[5mC]*eA*eG*eA*dA*dA*dA*dG*d[5mC]*dT*d[5mC]*dT*d[5mC]*dA*eA*eG*eA*eA*e[5mC]) [compound 416504]	0	

Substance	% Inhibition of human Factor 7 mRNA levels [1] [%]	other results
416505 (antisense eG*e[5mC]*eA*eG*eA*dT*dT*dT*dG*d[5mC]*dA*dT*d[5mC]*dA*dG*eA*eA*eA*eA*eG) [compound 416505]	45	
416506 (antisense e[5mC]*eT*eT*eT*eA*dA*dA*dA*dT*d[5mC]*dA*dG*dT*dT*dT*e[5mC]*eA*e[5mC]*eA*e[5mC]) [compound 416506]	18	
416509 (antisense eA*eG*eG*eA*eG*d[5mC]*d[5mC]*d[5mC]*dG*dA*dG*dT*dT*d[5mC]*dT*eG*e[5mC]*eA*eG*eG) [compound 416509]	56	% Inhibition of human Factor 7 mRNA levels (gapmers (5-10-5, 3-14-3, 2-13-5 MOE) targeted to nucleobases 4868 to 4899 of SEQ ID NO: 1): 60%
416510 (antisense eG*eA*e[5mC]*eG*eA*dG*dG*d[5mC]*d[5mC]*dT*d[5mC]*dA*dG*dG*dT*eG*eG*eA*e[5mC]*eG) [compound 416510]	30	
416511 (antisense eT*eT*eG*e[5mC]*eT*dG*dG*dG*dA*dG*dG*dA*d[5mC]*dG*dA*eG*eG*e[5mC]*e[5mC]*eT) [compound 416511]	35	
416512 (antisense eG*eA*e[5mC]*eG*eA*d[5mC]*d[5mC]*dT*dT*dT*dG*d[5mC]*dT*dG*dG*eG*eA*eG*eG*eA) [compound 416512]	43	
416513 (antisense e[5mC]*eT*eG*eA*eT*dG*dT*dG*dA*dA*dA*dA*d[5mC]*d[5mC]*dG*eG*e[5mC]*eA*eT*eG) [compound 416513]	37	
416514 (antisense eG*eT*eA*eT*eT*dT*dT*d[5mC]*dT*dG*dA*dT*dG*dT*dG*eA*eA*eA*eA*e[5mC]) [compound 416514]	8	
416515 (antisense eT*eA*eG*eG*e[5mC]*dA*dT*dG*dA*d[5mC]*d[5mC]*dA*dT*d[5mC]*d[5mC]*eT*e[5mC]*eA*eA*eT) [compound 416515]	39	
416516 (antisense eG*eT*eG*eA*eG*dA*dA*dT*dA*d[5mC]*dA*dA*d[5mC]*dA*dG*eA*eT*eG*eA*eG) [compound 416516]	24	
416517 (antisense eG*eG*eG*eT*eG*d[5mC]*dA*dG*dT*dA*dG*d[5mC]*dA*dG*dA*eT*eG*e[5mC]*eA*eA) [compound 416517]	23	
416518 (antisense eG*eG*eG*eT*eG*dA*d[5mC]*d[5mC]*dA*d[5mC]*dA*d[5mC]*dA*dT*dT*eT*e[5mC]*e[5mC]*eT*eG) [compound 416518]	55	
416519 (antisense eA*eA*eA*eT*eA*dT*dG*dG*dG*dA*d[5mC]*d[5mC]*d[5mC]*dA*dA*eA*eG*eT*eG*eG) [compound 416519]	9	
416520 (antisense e[5mC]*e[5mC]*e[5mC]*eT*e[5mC]*dT*dG*d[5mC]*dA*dA*dA*dT*dA*dT*dG*eG*eG*eA*e[5mC]*e[5mC]) [compound 416520]	14	
416521 (antisense e[5mC]*eA*e[5mC]*e[5mC]*e[5mC]*d[5mC]*dA*d[5mC]*d[5mC]*dA*dG*dG*dT*dT*dG*eT*eG*e[5mC]*eA*e[5mC]) [compound 416521]	36	
416522 (antisense eG*eG*e[5mC]*eT*eG*dA*dG*dA*dA*dT*dT*dG*d[5mC]*d[5mC]*d[5mC]*eA*eG*eG*eG*e[5mC]) [compound 416522]	25	
416523 (antisense eT*e[5mC]*eT*e[5mC]*eG*dA*dG*dG*dG*d[5mC]*dT*dG*dA*dG*dA*eA*eT*eT*eG*e[5mC]) [compound 416523]	18	
416524 (antisense eT*eA*eA*eT*eT*dT*dA*dA*dT*dA*dT*dT*d[5mC]*dA*dG*eA*eT*eG*eG*eT) [compound 416524]	0	
416525 (antisense eT*eA*eT*eG*eA*dG*dT*d[5mC]*d[5mC]*dT*dT*d[5mC]*dT*dA*dG*eT*eG*eA*eA*eT) [compound 416525]	5	
416526 (antisense eT*eG*eT*e[5mC]*e[5mC]*dA*d[5mC]*dA*dT*dG*dA*d[5mC]*d[5mC]*d[5mC]*d[5mC]*eA*e[5mC]*eA*eG*eG) [compound 416526]	19	
416527 (antisense eG*eA*eG*e[5mC]*eT*dT*d[5mC]*d[5mC]*d[5mC]*dA*dA*dG*dT*dT*dG*eG*e[5mC]*eA*eG*eT) [compound 416527]	49	
416528 (antisense eT*eG*eA*eT*eA*dA*dA*dA*d[5mC]*d[5mC]*dT*d[5mC]*dT*dG*dG*eA*e[5mC]*eA*e[5mC]*e[5mC]) [compound 416528]	10	
